The values below come from patent US20090178145A1, “Methods and targets for identifying compounds for regulating angiogenesis” (The Procter & Gamble Company, priority 2005, published 2009).

One series has as its system GPR176. The series can be described thus: Zebrafish morpholino knockdown of GPR (GPR176): blood circulation and intersegmental vessel morphology. Format: in vivo. The following applies: 48 hpf. An excerpt: (§1) To assess gene function in zebrafish (Danio rario) angiogenesis, MOs directed against ETL, GPR (or GPR176) and their respective mismatch controls are microinjected into zebrafish at the 1-2 cell stage. Blood circulation through the intersegmental vessels (ISVs) is observed in live zebrafish at 48 hpf and morphology of ISVs in the tail at 48 hpf using Phy-V antibody staining is also examined as described (Seng W. L. et al., Angiogenesis. 2004; 7(3):243-53.). The sequence for the ETL morpholino is: […]. The sequence for the mismatch […] morpholino (small case letters indicate mismatches) is: GCAcGAcTTTgATTGGAcAACTcTG. The sequence for the GPR morpholino is: […]. The sequence for the mismatch […] morpholino (small case letters indicate mismatches) is: AGgTCTgCGCcTTATCCcCCTCgAT.
This effect is not seen in control MO injections.

A further series has as its system ETL. Kind of series: Zebrafish morpholino knockdown of ETL: blood circulation and intersegmental vessel morphology. The series is classed as in vivo.
Source text: as §1
While transcriptional gene changes provide the basis for investigating ETL and GPR as regulators of vascular development, experiments are carried out to obtain functional evidence that ETL and GPR are involved in blood vessel growth and development. To accomplish this, a zebrafish model may be used with ETL or GPR morpholino oligos to reduce gene expression during vasculogenesis. […] This effect is not seen in control MO injections.

“GPR MO: morpholino oligo directed against zebrafish GPR176, sequence AGCTCTCCGCGTTATCCGCCTCCAT (SEQ ID NO 19) (all phosphorodiamidate morpholino (PMO))”: in the series on GPR176 (0.25 pmol GPR MO), the “zebrafish affected (similar ISV phenotype as the 0.5 pmol dose)” value was 37%. Besides, in the series on GPR176 (0.5 pmol GPR MO), the “body morphology in live zebrafish” value was “slightly curved body morphology”. Besides, the “zebrafish with abnormal connections and incomplete vessel formation of ISVs by immunostaining” value worked out at 76% in the series with GPR176 (0.5 pmol GPR MO, experiment 1) and 94% in the series with GPR176 (0.5 pmol GPR MO, experiment 2). For the same substance, the “blood circulation through the intersegmental vessels in live zebrafish” value in the series with GPR176 (0.5 pmol GPR MO, versus mismatch control) is “visible circulatory defects”.
As for “ETL MO: morpholino oligo directed against zebrafish ETL, sequence GCAGGAGTTTCATTGGAGAACTGTG (SEQ ID NO 17) (all phosphorodiamidate morpholino (PMO))”, the “zebrafish affected (same ISV phenotype as the 0.5 pmol dose)” value with ETL (0.25 pmol ETL MO, 48 hpf) amounted to 70%. In the series with ETL (0.5 pmol ETL MO injected at 1-2 cell stage, 48 hpf), the “zebrafish with abnormal connections and incomplete vessel formation of ISVs by immunostaining” value is listed as 100%. For the same substance, the “body morphology in live zebrafish” value in the series with ETL (0.5 pmol ETL MO, 48 hpf) is on record as “slightly curved body morphology”. In the series on ETL (0.5 pmol ETL MO, 48 hpf, versus mismatch control), the “blood circulation through the intersegmental vessels in live zebrafish” value is recorded as “visible circulatory defects”. Besides, the “phenotype of knockdown in images (FIG. 7)” value with ETL (48 hours post fertilization, versus mismatch control) was “retarded eye formation, edema in the brain and disrupted intersegmental vessel development and disrupted blood circulation”.
